{"source": "ChEMBL document CHEMBL1139712", "about": "“Interaction of N1-unsubstituted and N1-benzenesulfonyltryptamines at h5-HT6 receptors” (Bioorg Med Chem Lett, 2006)"}
{"target": "5-hydroxytryptamine receptor 6 (Homo sapiens, UniProt P50406)", "sequence (P50406 whole entry)": "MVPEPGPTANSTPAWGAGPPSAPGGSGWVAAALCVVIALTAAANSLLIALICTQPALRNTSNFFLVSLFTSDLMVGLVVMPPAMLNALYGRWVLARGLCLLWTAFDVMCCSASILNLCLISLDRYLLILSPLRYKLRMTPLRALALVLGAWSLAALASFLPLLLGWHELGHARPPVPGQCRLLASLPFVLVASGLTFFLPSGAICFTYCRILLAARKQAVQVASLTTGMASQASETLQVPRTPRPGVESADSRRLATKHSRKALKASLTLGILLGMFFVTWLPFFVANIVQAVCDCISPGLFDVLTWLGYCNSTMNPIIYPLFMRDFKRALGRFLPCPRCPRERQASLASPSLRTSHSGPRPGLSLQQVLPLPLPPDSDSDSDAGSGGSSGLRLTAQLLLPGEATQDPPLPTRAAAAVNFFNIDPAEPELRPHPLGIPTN", "experiment": "Displacement of [3H]LSD from human 5HT6 receptor expressed in HEK293 cells", "assay_type": "cell-based", "units": {"Ki": "µM"}}
{"smiles": "CCN(CC)CCc1c[nH]c2ccccc12", "Ki": 0.575}
{"smiles": "COc1cccc2c1c(CCN(C)C)cn2S(=O)(=O)c1ccccc1", "Ki": 0.011}
{"smiles": "COc1ccc2c(CCN(C)C)cn(S(=O)(=O)c3ccccc3)c2c1", "Ki": 0.015}
{"smiles": "CN(C)CCc1cn2c3c(cccc13)-c1ccccc1S2(=O)=O", "Ki": 4.5}
{"smiles": "CN(C)CCc1c2n(c3ccccc13)S(=O)(=O)c1ccccc1-2", "Ki": 0.143}
{"smiles": "CCN(CC)CCc1cn(S(=O)(=O)c2ccccc2)c2ccccc12", "Ki": 0.014}
{"smiles": "COc1ccc2[nH]cc(CCN(C)Cc3ccccc3)c2c1", "Ki": 0.106}
